Assay results reported in DBAASP.
Values after ≈ are worked out from the molar mass of the structure shown.

Columns and labels:
Assay in all cases: ≥ marks a high value that may be exact or a test limit, other limits are often not marked, values filed in µg/mL are converted to µM
[1] = tested on: Escherichia coli ATCC 2592
[2] = tested on: Pseudomonas aeruginosa ATCC 10145
[3] = tested on: Staphylococcus aureus ATCC 33591
[4] = tested on: Cryptococcus neoformans ATCC 32045
[5] = tested on: Candida albicans ATCC 10231
[6] = tested on: Pseudomonas aeruginosa Ps4
[7] = tested on: Staphylococcus aureus ATCC 12600
[8] = tested on: Escherichia coli ATCC 11775

MIC [1] [µM]	MIC [2] [µM]	MIC [3] [µM]	MIC [4] [µM]	MIC [5] [µM]	MIC [6] [µM]	MIC [7] [µM]	MIC [8] [µM]	Compound
≥ 36.1	≥ 51.2	≥ 205	20.4 (≈ 49.8 µg/mL)	145 (≈ 354 µg/mL)	–	–	–	NCCCC[C@H](NC(=O)[C@H](Cc1ccccc1)NC(=O)[C@H](CCCCN)NC(=O)[C@H](CCCCN)NC(=O)[C@H](Cc1ccccc1)NC(=O)[C@H](CCCCN)NC(=O)[C@H](CCCCN)NC(=O)[C@H](Cc1ccccc1)NC(=O)[C@H](CCCCN)NC(=O)[C@H](CCCCN)NC(=O)[C@H](Cc1ccccc1)NC(=O)[C@H](CCCCN)NC(=O)[C@H](CCCCN)NC(=O)[C@H](Cc1ccccc1)NC(=O)[C@H](CCCCN)NC(=O)[C@H](CCCCN)NC(=O)[C@H](Cc1ccccc1)NC(=O)[C@@H](N)CCCCN)C(=O)O [KFKKFKKFKKFKKFKKFK]
7.9 (≈ 22.6 µg/mL)	21.6 (≈ 62 µg/mL)	≥ 87.2	15.5 (≈ 44.5 µg/mL)	61.7 (≈ 177 µg/mL)	–	–	–	C[C@H](NC(=O)[C@H](Cc1ccccc1)NC(=O)[C@H](CCCCN)NC(=O)[C@H](CCCCN)NC(=O)[C@H](C)NC(=O)[C@H](Cc1ccccc1)NC(=O)[C@H](CCCCN)NC(=O)[C@H](CCCCN)NC(=O)[C@H](C)NC(=O)[C@H](Cc1ccccc1)NC(=O)[C@H](CCCCN)NC(=O)[C@H](CCCCN)NC(=O)[C@H](C)NC(=O)[C@H](Cc1ccccc1)NC(=O)[C@H](CCCCN)NC(=O)[C@H](CCCCN)NC(=O)[C@H](C)NC(=O)[C@H](Cc1ccccc1)NC(=O)[C@H](CCCCN)NC(=O)[C@H](CCCCN)NC(=O)[C@H](C)NC(=O)[C@H](Cc1ccccc1)NC(=O)[C@H](CCCCN)NC(=O)[C@@H](N)CCCCN)C(=O)O [KKFAKKFAKKFAKKFAKKFAKKFA]
–	–	–	–	–	≥ 145	–	–	CC[C@H](C)[C@H](NC(=O)[C@H](CC(N)=O)NC(=O)[C@H](CCCN=C(N)N)NC(=O)[C@H](CCC(N)=O)NC(=O)[C@H](Cc1c[nH]c2ccccc12)NC(=O)[C@H](CCCN=C(N)N)NC(=O)[C@@H](N)CCCN=C(N)N)C(=O)N[C@@H](CCCN=C(N)N)C(=O)N[C@@H](CCCCN)C(=O)N[C@H](C(=O)N[C@@H](CCCN=C(N)N)C(=O)N[C@@H](CCCN=C(N)N)C(N)=O)C(C)C [RRWQRNIRKVRR]
≥ 178	≥ 89	≥ 178	31.4 (≈ 88 µg/mL)	> 178	–	–	–	C[C@H](NC(=O)[C@H](C)NC(=O)[C@H](CCCCN)NC(=O)[C@H](CCCCN)NC(=O)[C@H](C)NC(=O)[C@H](C)NC(=O)[C@H](CCCCN)NC(=O)[C@H](CCCCN)NC(=O)[C@H](C)NC(=O)[C@H](C)NC(=O)[C@H](CCCCN)NC(=O)[C@H](CCCCN)NC(=O)[C@H](C)NC(=O)[C@H](C)NC(=O)[C@H](CCCCN)NC(=O)[C@H](CCCCN)NC(=O)[C@H](C)NC(=O)[C@H](C)NC(=O)[C@H](CCCCN)NC(=O)[C@H](CCCCN)NC(=O)[C@H](C)NC(=O)[C@H](C)NC(=O)[C@H](CCCCN)NC(=O)[C@H](CCCCN)NC(=O)[C@H](C)NC(=O)[C@H](C)NC(=O)[C@@H](N)CCCCN)C(=O)N[C@@H](CCCCN)C(=O)O [KAAKKAAKKAAKKAAKKAAKKAAKKAAK]
≥ 79.6	≥ 51.4	≥ 72.7	≥ 36.2	145 (≈ 354 µg/mL)	–	–	–	CC(C)C[C@H](NC(=O)[C@H](CCCCN)NC(=O)[C@H](CC(C)C)NC(=O)[C@H](CCCCN)NC(=O)[C@H](CC(C)C)NC(=O)[C@H](CCCCN)NC(=O)[C@H](CC(C)C)NC(=O)[C@H](CCCCN)NC(=O)[C@H](CC(C)C)NC(=O)[C@H](CCCCN)NC(=O)[C@H](CC(C)C)NC(=O)[C@H](CCCCN)NC(=O)[C@H](CC(C)C)NC(=O)[C@H](CCCCN)NC(=O)[C@H](CC(C)C)NC(=O)[C@H](CCCCN)NC(=O)[C@H](CC(C)C)NC(=O)[C@H](CCCCN)NC(=O)[C@@H](N)CC(C)C)C(=O)N[C@@H](CCCCN)C(=O)O [LKLKLKLKLKLKLKLKLKLK]
–	–	–	–	–	≥ 155	–	–	CC[C@H](C)[C@H](NC(=O)[C@H](CC(N)=O)NC(=O)[C@H](CCCN=C(N)N)NC(=O)[C@H](CCC(N)=O)NC(=O)[C@H](Cc1c[nH]c2ccccc12)NC(=O)[C@H](Cc1ccccc1)NC(=O)[C@@H](N)CS)C(=O)N[C@@H](CCCN=C(N)N)C(=O)N[C@@H](CCCCN)C(=O)N[C@H](C(=O)N[C@@H](CS)C(=O)N[C@@H](CCCN=C(N)N)C(N)=O)C(C)C [CFWQRNIRKVCR]
–	–	–	–	–	≥ 250	–	–	CC[C@H](C)[C@H](NC(=O)[C@H](CC(N)=O)NC(=O)[C@H](CCCN=C(N)N)NC(=O)[C@@H](NC(=O)[C@H](Cc1c[nH]c2ccccc12)NC(=O)[C@@H](N)Cc1ccccc1)C(C)C)C(=O)N[C@@H](CCCN=C(N)N)C(=O)N[C@@H](CCCCN)C(=O)N[C@H](C(=O)N[C@@H](CCCN=C(N)N)C(N)=O)C(C)C [FWVRNIRKVR]
–	–	–	–	–	≥ 180	–	–	CC[C@H](C)[C@H](NC(=O)[C@H](CC(N)=O)NC(=O)[C@H](CCCN=C(N)N)NC(=O)[C@@H](NC(=O)[C@H](Cc1c[nH]c2ccccc12)NC(=O)[C@@H](N)Cc1ccccc1)[C@@H](C)CC)C(=O)N[C@@H](CCCN=C(N)N)C(=O)N[C@@H](CCCCN)C(=O)N[C@H](C(=O)N[C@@H](CCCN=C(N)N)C(N)=O)C(C)C [FWIRNIRKVR]
–	–	–	–	–	≥ 159	–	–	CC[C@H](C)[C@H](NC(=O)[C@H](CC(N)=O)NC(=O)[C@H](CCCN=C(N)N)NC(=O)[C@H](CCC(N)=O)NC(=O)[C@H](Cc1c[nH]c2ccccc12)NC(=O)[C@@H](N)CCCN=C(N)N)C(=O)N[C@@H](CCCN=C(N)N)C(=O)N[C@@H](CCCCN)C(=O)N[C@H](C(=O)N[C@@H](CCCN=C(N)N)C(=O)N[C@@H](CCCN=C(N)N)C(N)=O)C(C)C [RWQRNIRKVRR]
≥ 64.1	≥ 66.7	≥ 90.7	23 (≈ 44.9 µg/mL)	181 (≈ 354 µg/mL)	–	–	–	CC(C)C[C@H](NC(=O)[C@H](CCCCN)NC(=O)[C@H](CC(C)C)NC(=O)[C@H](CCCCN)NC(=O)[C@H](CC(C)C)NC(=O)[C@H](CCCCN)NC(=O)[C@H](CC(C)C)NC(=O)[C@H](CCCCN)NC(=O)[C@H](CC(C)C)NC(=O)[C@H](CCCCN)NC(=O)[C@H](CC(C)C)NC(=O)[C@H](CCCCN)NC(=O)[C@H](CC(C)C)NC(=O)[C@H](CCCCN)NC(=O)[C@@H](N)CC(C)C)C(=O)N[C@@H](CCCCN)C(=O)O [LKLKLKLKLKLKLKLK]
≥ 40.2	≥ 36.5	≥ 161	20.3 (≈ 44.5 µg/mL)	161 (≈ 354 µg/mL)	–	–	–	CC(C)C[C@H](NC(=O)[C@H](CCCCN)NC(=O)[C@H](CC(C)C)NC(=O)[C@H](CCCCN)NC(=O)[C@H](CC(C)C)NC(=O)[C@H](CCCCN)NC(=O)[C@H](CC(C)C)NC(=O)[C@H](CCCCN)NC(=O)[C@H](CC(C)C)NC(=O)[C@H](CCCCN)NC(=O)[C@H](CC(C)C)NC(=O)[C@H](CCCCN)NC(=O)[C@H](CC(C)C)NC(=O)[C@H](CCCCN)NC(=O)[C@H](CC(C)C)NC(=O)[C@H](CCCCN)NC(=O)[C@@H](N)CC(C)C)C(=O)N[C@@H](CCCCN)C(=O)O [LKLKLKLKLKLKLKLKLK]
–	–	–	–	–	≥ 137	–	–	CC[C@H](C)[C@H](NC(=O)[C@H](CCCN=C(N)N)NC(=O)[C@H](CCCN=C(N)N)NC(=O)[C@H](CCCN=C(N)N)NC(=O)[C@@H](NC(=O)[C@H](CCCCN)NC(=O)[C@H](CCCN=C(N)N)NC(=O)[C@@H](NC(=O)[C@H](CC(N)=O)NC(=O)[C@H](CCCN=C(N)N)NC(=O)[C@H](CCC(N)=O)NC(=O)[C@H](Cc1c[nH]c2ccccc12)NC(=O)[C@@H](N)Cc1ccccc1)[C@@H](C)CC)C(C)C)C(N)=O [FWQRNIRKVRRRI]
–	–	–	–	–	≥ 196	–	–	CC[C@H](C)[C@H](NC(=O)[C@H](CC(N)=O)NC(=O)[C@H](CCCN=C(N)N)NC(=O)[C@H](CCC(N)=O)NC(=O)[C@H](Cc1c[nH]c2ccccc12)NC(=O)[C@@H](N)Cc1ccccc1)C(=O)N[C@@H](CCCN=C(N)N)C(=O)N[C@H](C(=O)N[C@@H](CCCN=C(N)N)C(N)=O)C(C)C [FWQRNIRVR]
≥ 86.5	≥ 122	≥ 86.5	≥ 43.1	> 245	–	–	–	CC(C)C[C@H](NC(=O)[C@H](C)NC(=O)[C@H](CC(C)C)NC(=O)[C@H](C)NC(=O)[C@H](CC(C)C)NC(=O)[C@H](C)NC(=O)[C@H](CC(C)C)NC(=O)[C@H](C)NC(=O)[C@H](CC(C)C)NC(=O)[C@H](C)NC(=O)[C@H](CC(C)C)NC(=O)[C@H](C)NC(=O)[C@H](CC(C)C)NC(=O)[C@H](C)NC(=O)[C@H](CC(C)C)NC(=O)[C@H](C)NC(=O)[C@H](CC(C)C)NC(=O)[C@H](C)NC(=O)[C@H](CC(C)C)NC(=O)[C@H](C)NC(=O)[C@@H](N)CC(C)C)C(=O)N[C@@H](C)C(=O)O [LALALALALALALALALALALA]
–	–	–	–	–	–	6 (≈ 8.76 µg/mL)	3 (≈ 4.38 µg/mL)	CC[C@H](C)[C@H](N)C(=O)N[C@H](C(=O)N1CCC[C@H]1C(=O)N[C@@H](CC(C)C)C(=O)N1CCC[C@H]1C(=O)N[C@@H](CC(C)C)C(=O)NCC(=O)N[C@@H](Cc1ccc(O)cc1)C(=O)N[C@@H](Cc1ccccc1)C(=O)N[C@@H](C)C(=O)N[C@@H](CCCCN)C(=O)N[C@@H](CCCCN)C(=O)N[C@H](C(=O)O)[C@@H](C)O)[C@@H](C)CC [IIPLPLGYFAKKT]
